Key:
[1] = test system: wheat (Triticum aestivum L; TRZAS); experiment: Postemergence herbicidal safening, greenhouse, visual injury: wheat; type: in vivo
Summary of the method: (§1)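 Percent visual injury relative to solvent-blank controls, rated 20-22 d after treatment on a 0 (none) to 100 (complete kill) scale. Expected mixture response came from Colby's equation, Expected=A+B−(A×B/100). Sprays contained 1.5% v/v crop oil concentrate at 187 L/ha.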

[2] = test system: barley (Hordeum vulgare L; HORVS); experiment: Postemergence herbicidal safening, greenhouse, visual injury: barley; type: in vivo; design: key to HORVS Ob (Observed values): % visual injury: 0 = no injury, 100 = complete kill
Summary of the method: as §1

[3] = test system: cleavers (Galium aparine L; GALAP); experiment: Postemergence herbicidal activity, greenhouse, visual injury: cleavers; type: in vivo; design: key: visual injury, 0–100%: 0 = no injury, 100 = complete kill
Summary of the method: as §1

[4] = test system: kochia (Kochia scoparia L; KCHSC); experiment: Postemergence herbicidal activity, greenhouse, visual injury: kochia; type: in vivo; design: key: % visual injury: 0 = no injury, 100 = complete kill
Experimental: (§2) Evaluation of Postemergence Herbicidal Safening in Cereal Crops
(§3) Seeds of the desired test plant species were planted in Sun Gro MetroMix® 306 planting mixture, which typically has a pH of 6.0 to 6.8 and an organic matter content of about 30 percent, in plastic pots with a surface area of 103.2 square centimeters (cm^2). When required to ensure good germination and healthy plants, a fungicide treatment and/or other chemical or physical treatment was applied. The plants were grown for 7-36 days (d) in a greenhouse with an approximate 14-hour (h) photoperiod which was maintained at about 18° C. during the day and 17° C. during the night. Nutrients and water were added on a regular basis and supplemental lighting was provided with overhead metal halide 1000-Watt lamps as necessary. The plants were employed for testing when they reached the second or third true leaf stage.
(§4) Weighed amounts of esters (methyl) or salts (TEA [triethylammonium], K [potassium]) of 4-amino-3-chloro-6-(4-chloro-2-fluoro-3-methoxyphenyl)pyridine-2-carboxylic acid (Compound 1) were dissolved in a volume of 97:3 volume/volume (v/v) acetone/dimethylsulfoxide (DMSO) to obtain stock solutions. […] The concentrated stock solutions were diluted with an aqueous mixture of 1.5% v/v of Agri-dex crop oil concentrate to provide the appropriate application rates. Compound requirements are based upon a 12 mL application volume at a rate of 187 liters per hectare (L/ha). Stocks solutions of the safeners were prepared following the same procedure. Spray solutions of the safeners and experimental compound mixtures were prepared by adding the stock solutions to the appropriate amount of dilution solution to form a 12 mL spray solution with active ingredients in two-way combinations. Formulated compounds were applied to the plant material with an overhead Mandel track sprayer equipped with 8002E nozzles calibrated to deliver 187 L/ha over an application area of 0.503 square meters (m^2) at a spray height of 18 inches (43 centimeters (cm)) above average plant canopy. Control plants were sprayed in the same manner with the solvent blank.
(§5) The treated plants and control plants were placed in a greenhouse as described above and watered by sub-irrigation to prevent wash-off of the test compounds. After 20-22 d, the condition of the test plants as compared with that of the control plants was determined visually and scored on a scale of 0 to 100 percent where 0 corresponds to no injury and 100 corresponds to complete kill.
(§6) Colby's equation was used to determine the herbicidal effects expected from the mixtures (Colby, S. R. Calculation of the synergistic and antagonistic response of herbicide combinations. Weeds 1967, 15, 20-22.).
(§7) The following equation was used to calculate the expected activity of mixtures containing two active ingredients, A and B: Expected=A+B−(A×B/100)
(§8) A=observed efficacy of active ingredient A at the same concentration as used in the mixture.
(§9) B=observed efficacy of active ingredient B at the same concentration as used in the mixture.

[5] = test system: purple deadnettle (Lamium purpureum L; LAMPU); experiment: Postemergence herbicidal activity, greenhouse, visual injury: purple deadnettle; type: in vivo
Summary of the method: (§10)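 Weeds were grown in MetroMix 306 (pH 6.0–6.8) in a greenhouse at about 18/17 °C day/night with a 14 h photoperiod and sprayed at the second or third true leaf stage. Compound 1 ester or salt plus safener in 1.5% v/v Agri-dex was applied at 187 L/ha. Injury was scored visually at 20-22 d (0–100%), with Colby expected values.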

[6] = test system: scented mayweed (Matricaria chamomila L; MATCH); experiment: Postemergence herbicidal activity, greenhouse, visual injury: scented mayweed; type: in vivo; design: key: % visual injury: 0 = no injury, 100 = complete kill
Experimental: as §2, §3, §4, §5, §6, §7, §8, §9

[7] = test system: corn poppy (Papaver rhoeas L; PAPRH); experiment: Postemergence herbicidal activity, greenhouse, visual injury: corn poppy; type: in vivo
Summary of the method: as §10

[8] = test system: wild buckwheat (Polygonum convolvulus L; POLCO); experiment: Postemergence herbicidal activity, greenhouse, visual injury: wild buckwheat; type: in vivo
Summary of the method: as §1

[9] = test system: Russian thistle (Salsola iberica L; SASKR); experiment: Postemergence herbicidal activity, greenhouse, visual injury: Russian thistle; type: in vivo; design: key: visual injury, 0–100%: 0 = no injury, 100 = complete kill
Summary of the method: as §1

[10] = test system: chickweed (Stellaria media L; STEME); experiment: Postemergence herbicidal activity, greenhouse, visual injury: chickweed; type: in vivo; design: key: visual injury, 0–100%: 0 = no injury, 100 = complete kill
Summary of the method: as §1

[11] = test system: bird's-eye speedwell (Veronica persica L; VERPE); experiment: Postemergence herbicidal activity, greenhouse, visual injury: bird's-eye speedwell; type: in vivo; design: key: visual injury, 0–100%: 0 = no injury, 100 = complete kill
Summary of the method: as §1

[12] = test system: wild pansy (Viola tricolor L; VIOTR); experiment: Postemergence herbicidal activity, greenhouse, visual injury: wild pansy; type: in vivo; design: key: visual injury, 0–100%: 0 = no injury, 100 = complete kill
Summary of the method: as §10

[13] = test system: durum wheat (Triticum durum L; TRZDU); experiment: Postemergence herbicidal safening, greenhouse, visual injury: durum wheat; type: in vivo
Summary of the method: as §1

[14] = test system: wheat (Triticum aestivum L; TRZAW); experiment: Postemergence herbicidal safening, greenhouse, visual injury: wheat (TRZAW); type: in vivo
Summary of the method: as §1

[15] = test system: barley (HORVW); experiment: Postemergence herbicidal safening, greenhouse, visual injury: barley (HORVW)

Question: What does the source list for `C=CCN(CC=C)C(=O)C(Cl)Cl` [Dichlormid, N,N-diallyl-2,2-dichloroacetamide, reference compound]?
Answer: TRZAS Ob ([1]; applied alone at 17.5 g/ha): 0%; TRZAS Ob ([1]; applied alone at 35 g/ha): 0%; TRZAS Ob ([1]; applied alone at 70 g/ha): 0%; TRZAS Ob ([1]; applied alone at 140 g/ha): 0%; HORVS Ob ([2]; applied alone at 17.5 g/ha): 0%; HORVS Ob ([2]; applied alone at 35 g/ha): 0%; HORVS Ob ([2]; applied alone at 70 g/ha): 0%; HORVS Ob ([2]; applied alone at 140 g/ha): 0%; HORVS Ob (Observed values) ([2]; safener 4.4 g/ha alone): 0; HORVS Ob (Observed values) ([2]; safener 8.8 g/ha alone): 0; HORVS Ob (Observed values) ([2]; safener 17.5 g/ha alone): 0; HORVS Ob (Observed values) ([2]; safener 35 g/ha alone): 0; GALAP Ob ([3]; applied alone at 17.5 g/ha): 0%; GALAP Ob ([3]; applied alone at 35 g/ha): 0%; GALAP Ob ([3]; applied alone at 70 g/ha): 0%; GALAP Ob ([3]; applied alone at 140 g/ha): 0%; KCHSC Ob ([4]; applied alone at 17.5 g/ha): 0%; KCHSC Ob ([4]; applied alone at 35 g/ha): 0%; KCHSC Ob ([4]; applied alone at 70 g/ha): 0%; KCHSC Ob ([4]; applied alone at 140 g/ha): 0%; LAMPU Ob ([5]; applied alone at 17.5 g/ha): 0%; LAMPU Ob ([5]; applied alone at 35 g/ha): 0%; LAMPU Ob ([5]; applied alone at 70 g/ha): 0%; LAMPU Ob ([5]; applied alone at 140 g/ha): 0%; LAMPU Ob (Observed values) ([5]; safener 4.4 g/ha alone): 0; LAMPU Ob (Observed values) ([5]; safener 8.8 g/ha alone): 0; LAMPU Ob (Observed values) ([5]; safener 17.5 g/ha alone): 0; LAMPU Ob (Observed values) ([5]; safener 35 g/ha alone): 0; MATCH Ob ([6]; applied alone at 17.5 g/ha): 0%; MATCH Ob ([6]; applied alone at 35 g/ha): 0%; MATCH Ob ([6]; applied alone at 70 g/ha): 0%; MATCH Ob ([6]; applied alone at 140 g/ha): 0%; PAPRH Ob ([7]; applied alone at 17.5 g/ha): 0%; PAPRH Ob ([7]; applied alone at 35 g/ha): 0%; PAPRH Ob ([7]; applied alone at 70 g/ha): 0%; PAPRH Ob ([7]; applied alone at 140 g/ha): 0%; PAPRH Ob (Observed values) ([7]; safener 4.4 g/ha alone): 0; PAPRH Ob (Observed values) ([7]; safener 8.8 g/ha alone): 0; PAPRH Ob (Observed values) ([7]; safener 17.5 g/ha alone): 0; PAPRH Ob (Observed values) ([7]; safener 35 g/ha alone): 0; POLCO Ob ([8]; applied alone at 17.5 g/ha): 0%; POLCO Ob ([8]; applied alone at 35 g/ha): 0%; POLCO Ob ([8]; applied alone at 70 g/ha): 0%; POLCO Ob ([8]; applied alone at 140 g/ha): 0%; SASKR Ob ([9]; applied alone at 17.5 g/ha): 0%; SASKR Ob ([9]; applied alone at 35 g/ha): 0%; SASKR Ob ([9]; applied alone at 70 g/ha): 0%; SASKR Ob ([9]; applied alone at 140 g/ha): 0%; STEME Ob ([10]; applied alone at 17.5 g/ha): 0%; STEME Ob ([10]; applied alone at 35 g/ha): 0%; STEME Ob ([10]; applied alone at 70 g/ha): 0%; STEME Ob ([10]; applied alone at 140 g/ha): 0%; VERPE Ob ([11]; applied alone at 17.5 g/ha): 0%; VERPE Ob ([11]; applied alone at 35 g/ha): 0%; VERPE Ob ([11]; applied alone at 70 g/ha): 0%; VERPE Ob ([11]; applied alone at 140 g/ha): 0%; VIOTR Ob ([12]; applied alone at 17.5 g/ha): 0%; VIOTR Ob ([12]; applied alone at 35 g/ha): 0%; VIOTR Ob ([12]; applied alone at 70 g/ha): 0%; VIOTR Ob ([12]; applied alone at 140 g/ha): 0%; TRZDU Ob (Observed values) ([13]; safener 4.4 g/ha alone): 0%; TRZDU Ob (Observed values) ([13]; safener 8.8 g/ha alone): 0%; TRZDU Ob (Observed values) ([13]; safener 17.5 g/ha alone): 0%; TRZDU Ob (Observed values) ([13]; safener 35 g/ha alone): 0%; TRZAW Ob (Observed values) ([14]; safener 4.4 g/ha alone): 0%; TRZAW Ob (Observed values) ([14]; safener 8.8 g/ha alone): 0%; TRZAW Ob (Observed values) ([14]; safener 17.5 g/ha alone): 0%; TRZAW Ob (Observed values) ([14]; safener 35 g/ha alone): 0%; HORVW Ob (Observed values) ([15]; safener 4.4 g/ha alone): 0%; HORVW Ob (Observed values) ([15]; safener 8.8 g/ha alone): 0%; HORVW Ob (Observed values) ([15]; safener 17.5 g/ha alone): 0%; HORVW Ob (Observed values) ([15]; safener 35 g/ha alone): 0%
